Measurements reported in PubChem BioAssay AID2060510 (Molecular Pharmacology Branch, DTP, NCI, 2025).

Test system: 439559-082-T-J2-PDC spheroids viability
Assay: Anticancer human tumor 439559-082-T-J2-PDC patient-derived colon adenocarcinoma cell line growth inhibition [GQUAD]
Details: for IC50: curve of first compound; for viability, T/C: stronger effect = lower value
Method in brief: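 Tumor cells were grown as complex spheroids with HUVEC endothelial cells and mesenchymal stem cells as stroma. G-quadruplex stabilizers were combined with targeted agents over half-log dilutions from near the clinical Cmax, or from 10 microM.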

[1] = second compound 0.0316 µM, first compound 0.0316 µM
[2] = second compound 0.0316 µM, first compound 0.1 µM
[3] = second compound 0.0316 µM, first compound 0.316 µM
[4] = second compound 0.0316 µM, first compound 1 µM
[5] = second compound 0.0316 µM, first compound 3.16 µM
[6] = second compound 0.0316 µM, first compound 10 µM
[7] = second compound 0.1 µM, first compound 0.0316 µM
[8] = second compound 0.1 µM, first compound 0.1 µM
[9] = second compound 0.1 µM, first compound 0.316 µM
[10] = second compound 0.1 µM, first compound 1 µM
[11] = second compound 0.1 µM, first compound 3.16 µM
[12] = second compound 0.1 µM, first compound 10 µM
[13] = second compound 0.316 µM, first compound 0.0316 µM
[14] = second compound 0.316 µM, first compound 0.1 µM
[15] = second compound 0.316 µM, first compound 0.316 µM
[16] = second compound 0.316 µM, first compound 1 µM
[17] = second compound 0.316 µM, first compound 3.16 µM
[18] = second compound 0.316 µM, first compound 10 µM
[19] = second compound 1 µM, first compound 0.0316 µM
[20] = second compound 1 µM, first compound 0.1 µM
[21] = second compound 1 µM, first compound 0.316 µM
[22] = second compound 1 µM, first compound 1 µM
[23] = second compound 1 µM, first compound 3.16 µM
[24] = second compound 1 µM, first compound 10 µM
[25] = second compound 3.16 µM, first compound 0.0316 µM
[26] = second compound 3.16 µM, first compound 0.1 µM
[27] = second compound 3.16 µM, first compound 0.316 µM
[28] = second compound 3.16 µM, first compound 1 µM
[29] = second compound 3.16 µM, first compound 3.16 µM
[30] = second compound 3.16 µM, first compound 10 µM
[31] = second compound 10 µM, first compound 0.0316 µM
[32] = second compound 10 µM, first compound 0.1 µM
[33] = second compound 10 µM, first compound 0.316 µM
[34] = second compound 10 µM, first compound 1 µM
[35] = second compound 10 µM, first compound 3.16 µM
[36] = second compound 10 µM, first compound 10 µM
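Note: spheroids exposed to the agents for 7 days before readout.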
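Throughout, for viability, T/C: percent of luminescence signal in DMSO vehicle wells taken as 100% viability.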

## C#Cc1c(F)ccc2cc(O)cc(-c3ncc4c(N5CC6CCC(C5)N6)nc(OCC56CCCN5CC(F)C6)nc4c3F)c12 (centres undefined) + Cc1[nH]c2ccc(F)cc2c1-c1nc2c3cccnc3c3ncccc3c2[nH]1
Second compound 0.0316 µM
  IC50: 1540 nM
Second compound 0.1 µM
  IC50: 1620 nM
Second compound 0.316 µM
  IC50: 1530 nM
Second compound 1 µM
  IC50: 1610 nM
Second compound 3.16 µM
  IC50: 709 nM
Second compound 10 µM
  IC50: 1010 nM
[1]
  viability, T/C: 97%
[2]
  viability, T/C: 104%
[3]
  viability, T/C: 87.6%
[4]
  viability, T/C: 71.9%
[5]
  viability, T/C: 13.7%
[6]
  viability, T/C: 9.66%
[7]
  viability, T/C: 112%
[8]
  viability, T/C: 96.4%
[9]
  viability, T/C: 109%
[10]
  viability, T/C: 79.5%
[11]
  viability, T/C: 9.72%
[12]
  viability, T/C: 7.59%
[13]
  viability, T/C: 105%
[14]
  viability, T/C: 97.9%
[15]
  viability, T/C: 90.8%
[16]
  viability, T/C: 74.2%
[17]
  viability, T/C: 7.82%
[18]
  viability, T/C: 7.52%
[19]
  viability, T/C: 91.5%
[20]
  viability, T/C: 91.9%
[21]
  viability, T/C: 101%
[22]
  viability, T/C: 79.9%
[23]
  viability, T/C: 8.22%
[24]
  viability, T/C: 5.9%
[25]
  viability, T/C: 72.2%
[26]
  viability, T/C: 72.5%
[27]
  viability, T/C: 70.8%
[28]
  viability, T/C: 41.1%
[29]
  viability, T/C: 5.26%
[30]
  viability, T/C: 2.89%
[31]
  viability, T/C: 85.2%
[32]
  viability, T/C: 69.3%
[33]
  viability, T/C: 93%
[34]
  viability, T/C: 50.5%
[35]
  viability, T/C: 2.77%
[36]
  viability, T/C: 3.31%

## CC(=O)O[C@H]1C(=O)[C@@]2(C)[C@H]([C@H](OC(=O)c3ccccc3)[C@]3(O)C[C@H](OC(=O)[C@H](O)[C@@H](NC(=O)c4ccccc4)c4ccccc4)C(C)=C1C3(C)C)[C@]1(OC(C)=O)CO[C@@H]1C[C@@H]2O + Cc1[nH]c2ccc(F)cc2c1-c1nc2c3cccnc3c3ncccc3c2[nH]1
Second compound 0.0316 µM
  IC50: 343 nM
Second compound 0.1 µM
  IC50: 406 nM
Second compound 0.316 µM
  IC50: 436 nM
Second compound 1 µM
  IC50: 402 nM
Second compound 3.16 µM
  IC50: 385 nM
Second compound 10 µM
  IC50: 298 nM
[1]
  viability, T/C: 103%
[2]
  viability, T/C: 81.4%
[3]
  viability, T/C: 57.7%
[4]
  viability, T/C: 4.13%
[5]
  viability, T/C: 0.17%
[6]
  viability, T/C: 0.27%
[7]
  viability, T/C: 99%
[8]
  viability, T/C: 96.2%
[9]
  viability, T/C: 63.1%
[10]
  viability, T/C: 2.41%
[11]
  viability, T/C: 0.19%
[12]
  viability, T/C: 0.28%
[13]
  viability, T/C: 102%
[14]
  viability, T/C: 87.5%
[15]
  viability, T/C: 67.7%
[16]
  viability, T/C: 5.02%
[17]
  viability, T/C: 0.14%
[18]
  viability, T/C: 0.29%
[19]
  viability, T/C: 90.2%
[20]
  viability, T/C: 82.3%
[21]
  viability, T/C: 61.9%
[22]
  viability, T/C: 6.01%
[23]
  viability, T/C: 0.1%
[24]
  viability, T/C: 0.41%
[25]
  viability, T/C: 61.7%
[26]
  viability, T/C: 76.5%
[27]
  viability, T/C: 58.6%
[28]
  viability, T/C: 6.91%
[29]
  viability, T/C: 0.18%
[30]
  viability, T/C: 0.37%
[31]
  viability, T/C: 88.9%
[32]
  viability, T/C: 63.2%
[33]
  viability, T/C: 55.9%
[34]
  viability, T/C: 9.43%
[35]
  viability, T/C: 0.43%
[36]
  viability, T/C: 0.5%
